Data from patent US5939428A, “Alkyl N-[3-(acridin-9-yl)amino-5-hydroxymethyl] phenylcarbamates” (National Health Research Institutes, priority 1998, dated 1999).
Values belong to the compound of their own block, whether it stands above or below them.

What was measured:
[1] = mouse and rat; GSH conjugates; cited from earlier work
[2] = 37° C.; cited from earlier work
[3] = mouse, in vivo; cited from earlier work
HL-60 cells = experiment: in vitro cytotoxicity against growth of human leukemic HL-60 cells; type: cell-based; settings: read-out: IC50 for cell growth inhibition, HL-60
Method: (§1) The in vitro cytotoxicity of the N-[3-(acridin-9-yl)amino-5-hydroxymethyl]phenylcarbamate derivatives of the invention against growth of human leukemic HL-60 cells and 833K tumor cells, and the chemotherapeutic effects of ethyl N-[3-(acridin-9-yl)amino-5-hydroxymethyl]phenylcarbamate on Sarcoma 180 and Lewis lung carcinoma tumor bearing B6 D2 F1 mice were evaluated. The compound 3-(acridin-9-yl)amino-5-hydroxymethylaniline (AHMA) was also evaluated for comparison.
(§2) The in vitro cytotoxicity against growth of human
(§3) leukemic HL-60 cells and 833K tumor cells.

833K tumor cells = experiment: in vitro cytotoxicity against growth of 833K tumor cells; type: cell-based; settings: Homo sapiens, read-out: IC50 for cell growth inhibition, 833K
Method: as §1, §2, §3

Sarcoma 180 = experiment: chemotherapeutic effect on Sarcoma 180 tumor bearing B6 D2 F1 mice; type: in vivo; settings: for Average Tumor Volume (T/C), Day 7 / Average Weight Change, Day 7: QD × 5, day 7
From the text: Sarcoma 180 (3 × 10^6 cells) innoculated subcutaneously
(s.c.) on day 0. Treatment started on day 1, peritoneal injection (i.p.),

Lewis lung carcinoma = experiment: chemotherapeutic effect on Lewis lung carcinoma tumor bearing B6 D2 F1 mice; type: in vivo; settings: for Average Weight Change, Day 7 / Average Weight Change, Day 10: mouse, in vivo, ip
Method: as §1
The chemotherapeutic effects on Sarcoma 180 and
Lewis lung carcinoma tumor bearing B6 D2 F1 mice.^a […]
carcinoma (4 × […] cells) inoculated s.c. on day (-2).
Treatment started on day 1, i.p., QD × 5. Control had 4 mice and
each dose had 3 mice. Tumor sizes were evaluated on day 7 and day 10.

[4] = system: leukemia and several solid tumors; settings: against growth of leukemia and several solid tumors, in vitro and in vivo; cited from earlier work
[5] = longer than m-AMSA; cited from earlier work
[6] = system: murine leukemia and solid tumors (a mammary adenocarcinoma, B-16 melanoma and Lewis lung carcinoma); settings: cited from earlier work
[7] = Lewis lung carcinoma, 3.0 mg/kg i.p., QD × 5
[8] = Lewis lung carcinoma, 6.0 mg/kg i.p., QD × 5

SMILES: COc1cc(NS(C)(=O)=O)ccc1Nc1c2ccccc2nc2ccccc12 [m-AMSA, 4'-(9-acridinylamino)methanesulfon-m-anisidine]
major biliary metabolites [1]: the major biliary metabolites of this agent were the 5'- and 6'-glutathione (GSH) conjugates, with no C9-GSH conjugate being found
half-life in the presence of fresh mouse blood [2]: ca. 30 min
dose excreted as the glutathione conjugate in the bile [3]: More than 50%

SMILES: CC(C)COC(=O)Nc1cc(CO)cc(Nc2c3ccccc3nc3ccccc23)c1 [compound 3, i-butyl N-[3-(acridin-9-yl)amino-5-hydroxymethyl]phenylcarbamate]
IC50 (HL-60 cells): 18 nM
IC50 (833K tumor cells): 21 nM

SMILES: CNC(=O)c1cccc2c(Nc3cc(N)cc(CO)c3)c3cccc(C)c3nc12 [compound 4, 3-(5-methyl-4-methylamino-carbonylacridin-9-yl)amino-5-hydroxymethylaniline]
IC50 (HL-60 cells): 144 nM
IC50 (833K tumor cells): 244 nM

SMILES: CCOC(=O)Nc1cc(CO)cc(Nc2c3cccc(C)c3nc3c(C(=O)NC)cccc23)c1 [compound 5, ethyl N-[3-(4-methylaminocarbonyl-5-methylacridin-9-yl)amino-5-hydroxymethyl]phenylcarbamate]
IC50 (HL-60 cells): 83 nM
IC50 (833K tumor cells): 34 nM

Average Weight Change, Day 7 (Sarcoma 180; 3.0 mg/kg i.p.): -2.0 gm
Average Weight Change, Day 10 (Sarcoma 180; 3.0 mg/kg i.p., QD × 5, day 10): -0.7 gm
Average Weight Change, Day 7 (Sarcoma 180; 5.0 mg/kg i.p.): -2.6 gm
Average Weight Change, Day 10 (Sarcoma 180; 5.0 mg/kg i.p., QD × 5, day 10): +1.0 gm
Average Weight Change, Day 7 (Sarcoma 180; 7.0 mg/kg i.p.): -3.4 gm
Average Weight Change, Day 10 (Sarcoma 180; 7.0 mg/kg i.p., QD × 5, day 10): -0.1 gm
Average Weight Change, Day 7 (Lewis lung carcinoma; 3 mg/kg): -2.3 gm
Average Weight Change, Day 10 (Lewis lung carcinoma; 3 mg/kg): -1.3 gm
Average Weight Change, Day 7 (Lewis lung carcinoma; 6 mg/kg): -3 gm
Average Weight Change, Day 10 (Lewis lung carcinoma; 6 mg/kg): -2.6 gm
Average Weight Change, Day 7 (Lewis lung carcinoma; 8 mg/kg): -3.6 gm
SMILES: CCOC(=O)Nc1cc(CO)cc(Nc2c3ccccc3nc3ccccc23)c1 [compound 2, ethyl N-[3-(acridin-9-yl)amino-5-hydroxymethyl]phenylcarbamate]
IC50 (HL-60 cells): 16 nM
Average Tumor Volume (T/C), Day 7 (Sarcoma 180; 3.0 mg/kg i.p.): 1.24
Average Tumor Volume (T/C), Day 10 (Sarcoma 180; 3.0 mg/kg i.p., QD × 5, day 10): 1.21
Average Tumor Volume (T/C), Day 7 (Sarcoma 180; 5.0 mg/kg i.p.): 0.06
Average Tumor Volume (T/C), Day 10 (Sarcoma 180; 5.0 mg/kg i.p., QD × 5, day 10): 0.63
Average Tumor Volume (T/C), Day 7 (Sarcoma 180; 7.0 mg/kg i.p.): 0.22
Average Tumor Volume (T/C), Day 10 (Sarcoma 180; 7.0 mg/kg i.p., QD × 5, day 10): < 0.01
Tumor detectability (footnote b) (Sarcoma 180; 7.0 mg/kg i.p., QD × 5, day 10): Tumor not detectable
Average Tumor Volume (T/C), Day 7 (Lewis lung carcinoma; [7]): 0.8
Average Tumor Volume (T/C), Day 10 (Lewis lung carcinoma; [7]): 0.63
Average Tumor Volume (T/C), Day 7 (Lewis lung carcinoma; [8]): 0.44
Average Tumor Volume (T/C), Day 10 (Lewis lung carcinoma; [8]): 0.37
Mortality (footnote c) (Lewis lung carcinoma; Lewis lung carcinoma, 8.0 mg/kg i.p., QD × 5, 3 mice): One mouse died on day 8 and two mice died on day 9
Average Tumor Volume (T/C), Day 7 (Lewis lung carcinoma; Lewis lung carcinoma, 8.0 mg/kg i.p., QD × 5): 0.21
IC50 (833K tumor cells): 20 nM

SMILES: CNC(=O)c1cccc2c(Nc3ccc(NS(C)(=O)=O)cc3OC)c3cccc(C)c3nc12 [CI-921]
metabolites detected in addition to the 5'- and 6'-GSH conjugates [3]: two other metabolites, namely C9-GSH and the 4-hydroxymethyl derivatives of CI-921, were detected

SMILES: Nc1cc(CO)cc(Nc2c3ccccc3nc3ccccc23)c1 [compound 1, 3-(acridin-9-yl)amino-5-hydroxymethylaniline]
IC50 (HL-60 cells): 25 nM
antitumor activity [4]: potent antitumor activity against growth of leukemia and several solid tumors both in vitro and in vivo with long half-life
plasma half-life [5]: 1.5 h
toxicity toward the host compared with m-AMSA and VP-16 ([6]; mouse, in vivo): less toxic toward the host
antitumor efficacy compared with m-AMSA and VP-16 ([6]; murine leukemia and solid tumors): greater efficacy against murine leukemia and solid tumors (a mammary adenocarcinoma, B-16 melanoma and Lewis lung carcinoma) than m-AMSA and VP-16
